Measurements published in US10294202B2, “Pyrrolidinones as herbicides” (FMC Corporation, priority 2013, dated 2019).

How the values were obtained:
Test in all cases: Test D pre-/postemergence herbicide test
galium = type: in vivo, Galium aparine; details: for Plant response rating: Galium, scale 0 to 100; for Plant response rating, Galium: scale 0 to 100 (0 no effect, 100 complete control)
Text: (§1) Seeds of plant species selected from bluegrass (annual bluegrass, Poa annua), blackgrass (Alopecurus myosuroides), canarygrass (littleseed canarygrass, Phalaris minor), chickweed (common chickweed, Stellaria media), galium (catchweed bedstraw, Galium aparine), bromegrass, downy (downy bromegrass, Bromus tectorum), field poppy (Papaver rhoeas), field violet (Viola arvensis), foxtail, green (green foxtail, Setaria viridis), deadnettle (henbit deadnettle, Lamium amplexicaule), ryegrass, Italian (Italian ryegrass, Lolium multiflorum), kochia (Kochia scoparia), lambsquarters (Chenopodium album), oilseed rape (Brassica napus), pigweed (Amaranthus retroflexus), chamomile (scentless chamomile, Matricaria inodora), Russian thistle (Salsola kali), speedwell (bird's-eye speedwell, Veronica persica), barley, spring (spring barley, Hordeum vulgare), wheat, spring (spring wheat, Triticum aestivum), buckwheat, wild (wild buckwheat, Polygonum convolvulus), mustard, wild (wild mustard, Sinapis arvensis), oat, wild (wild oat, Avena fatua), radish, wild (wild radish, Raphanus raphanistrum), […]), barley, winter (winter barley, Hordeum vulgare), and wheat, winter (winter wheat, Triticum aestivum) were planted into a silt loam soil and treated preemergence with test chemicals formulated in a non-phytotoxic solvent mixture which included a surfactant. At the same time, these species were planted in pots containing Redi-Earth® planting medium (Scotts Company, 14111 Scottslawn Road, Marysville, Ohio 43041) comprising spaghnum peat moss, vermiculite, wetting agent and starter nutrients and treated with postemergence applications of the test chemicals formulated in the same manner. Plants ranged in height from 2 to 18 cm (1- to 4-leaf stage). Treated plants and controls were maintained in a controlled growth environment for 7 to 21 days after which time all species were compared to controls and visually evaluated. Plant response ratings, summarized in Table D, are based on a scale of 0 to 100 where 0 is no effect and 100 is complete control. A dash (-) response means no test result.

bromegrass, downy = type: in vivo, Bromus tectorum; details: for Plant response rating: Bromegrass, Downy, scale 0 to 100; for Plant response rating, Bromegrass, Downy: scale 0 to 100 (0 no effect, 100 complete control)
Text: as §1

chamomile = type: in vivo, Matricaria inodora; details: for Plant response rating: Chamomile, scale 0 to 100; for Plant response rating, Chamomile: scale 0 to 100 (0 no effect, 100 complete control)
Text: as §1

wheat, spring = type: in vivo, Triticum aestivum; details: for Plant response rating: Postemergence, Wheat, Spring, scale 0 to 100; for Plant response rating, Wheat, Spring: Preemergence, scale 0 to 100 (0 no effect, 100 complete control)
Text: as §1

wheat, winter = type: in vivo, Triticum aestivum; details: for Plant response rating: Postemergence, Wheat, Winter, scale 0 to 100; for Plant response rating, Wheat, Winter: Preemergence, scale 0 to 100 (0 no effect, 100 complete control)
Text: as §1

## O=C1NCC(c2ccc(F)c(F)c2)C1C(=O)Nc1ccccc1C(F)(F)F (racemic) [Compound 6]
galium; Postemergence, 16 g ai/ha
  Plant response rating: 0
galium; Postemergence, 31 g ai/ha
  Plant response rating: 0
galium; Postemergence, 62 g ai/ha
  Plant response rating: 0
galium; Postemergence, 125 g ai/ha
  Plant response rating: 0
galium; Postemergence, 250 g ai/ha
  Plant response rating: 0
galium; Preemergence, 62 g ai/ha
  Plant response rating, Galium: 50
galium; Preemergence, 16 g ai/ha
  Plant response rating, Galium: 0
galium; Preemergence, 31 g ai/ha
  Plant response rating, Galium: 0
galium; Preemergence, 125 g ai/ha
  Plant response rating: 100
galium; Preemergence, 250 g ai/ha
  Plant response rating: 100
bromegrass, downy; Postemergence, 16 g ai/ha
  Plant response rating: 0
bromegrass, downy; Postemergence, 31 g ai/ha
  Plant response rating: 0
bromegrass, downy; Postemergence, 62 g ai/ha
  Plant response rating: 0
bromegrass, downy; Postemergence, 125 g ai/ha
  Plant response rating: 0
bromegrass, downy; Postemergence, 250 g ai/ha
  Plant response rating: 0
bromegrass, downy; Preemergence, 62 g ai/ha
  Plant response rating, Bromegrass, Downy: 0
bromegrass, downy; Preemergence, 16 g ai/ha
  Plant response rating, Bromegrass, Downy: 0
bromegrass, downy; Preemergence, 31 g ai/ha
  Plant response rating, Bromegrass, Downy: 0
bromegrass, downy; Preemergence, 125 g ai/ha
  Plant response rating: 0
bromegrass, downy; Preemergence, 250 g ai/ha
  Plant response rating: 10
chamomile; Postemergence, 16 g ai/ha
  Plant response rating: 0
chamomile; Postemergence, 31 g ai/ha
  Plant response rating: 0
chamomile; Postemergence, 62 g ai/ha
  Plant response rating: 0
chamomile; Postemergence, 125 g ai/ha
  Plant response rating: 0
chamomile; Postemergence, 250 g ai/ha
  Plant response rating: 0
chamomile; Preemergence, 62 g ai/ha
  Plant response rating, Chamomile: 30
chamomile; Preemergence, 16 g ai/ha
  Plant response rating, Chamomile: 0
chamomile; Preemergence, 31 g ai/ha
  Plant response rating, Chamomile: 0
chamomile; Preemergence, 125 g ai/ha
  Plant response rating: 70
chamomile; Preemergence, 250 g ai/ha
  Plant response rating: 90
wheat, spring; 16 g ai/ha
  Plant response rating: 0
  Plant response rating, Wheat, Spring: 0
wheat, spring; 31 g ai/ha
  Plant response rating: 0
  Plant response rating, Wheat, Spring: 0
wheat, spring; 62 g ai/ha
  Plant response rating: 5
  Plant response rating, Wheat, Spring: 0
wheat, spring; 125 g ai/ha
  Plant response rating: 5
  Plant response rating, Wheat, Spring: 0
wheat, spring; 250 g ai/ha
  Plant response rating: 5
  Plant response rating, Wheat, Spring: 0
wheat, winter; 16 g ai/ha
  Plant response rating: 0
  Plant response rating, Wheat, Winter: 0
wheat, winter; 31 g ai/ha
  Plant response rating: 0
  Plant response rating, Wheat, Winter: 0
wheat, winter; 62 g ai/ha
  Plant response rating: 0
  Plant response rating, Wheat, Winter: 0
wheat, winter; 125 g ai/ha
  Plant response rating: 0
  Plant response rating, Wheat, Winter: 0
wheat, winter; 250 g ai/ha
  Plant response rating: 0
  Plant response rating, Wheat, Winter: 0

## O=C1NCC(c2ccc(F)c(C(F)(F)F)c2)C1C(=O)Nc1cccc(F)c1F (racemic) [Compound 77]
galium; Preemergence, 62 g ai/ha
  Plant response rating, Galium: 55
galium; Preemergence, 31 g ai/ha
  Plant response rating, Galium: 35
galium; Preemergence, 125 g ai/ha
  Plant response rating: 85
galium; Preemergence, 250 g ai/ha
  Plant response rating: 85
bromegrass, downy; Preemergence, 62 g ai/ha
  Plant response rating, Bromegrass, Downy: 0
bromegrass, downy; Preemergence, 31 g ai/ha
  Plant response rating, Bromegrass, Downy: 0
bromegrass, downy; Preemergence, 125 g ai/ha
  Plant response rating: 10
bromegrass, downy; Preemergence, 250 g ai/ha
  Plant response rating: 25
wheat, spring; 62 g ai/ha
  Plant response rating, Wheat, Spring: 10
wheat, spring; 125 g ai/ha
  Plant response rating, Wheat, Spring: 20
wheat, spring; 31 g ai/ha
  Plant response rating, Wheat, Spring: 10
wheat, spring; 250 g ai/ha
  Plant response rating, Wheat, Spring: 25
wheat, winter; 62 g ai/ha
  Plant response rating, Wheat, Winter: 0
wheat, winter; 125 g ai/ha
  Plant response rating, Wheat, Winter: 25
wheat, winter; 31 g ai/ha
  Plant response rating, Wheat, Winter: 0
wheat, winter; 250 g ai/ha
  Plant response rating, Wheat, Winter: 55

## O=C1NCC(c2cc(F)c(F)cc2F)C1C(=O)Nc1cccc(F)c1F (stereo not drawn) [Compound 50]
galium; Postemergence, 16 g ai/ha
  Plant response rating: 0
galium; Postemergence, 31 g ai/ha
  Plant response rating: 0
galium; Postemergence, 62 g ai/ha
  Plant response rating: 0
galium; Postemergence, 125 g ai/ha
  Plant response rating: 0
galium; Preemergence, 62 g ai/ha
  Plant response rating, Galium: 0
galium; Preemergence, 16 g ai/ha
  Plant response rating, Galium: 0
galium; Preemergence, 31 g ai/ha
  Plant response rating, Galium: 0
galium; Preemergence, 125 g ai/ha
  Plant response rating: 0
bromegrass, downy; Postemergence, 16 g ai/ha
  Plant response rating: 0
bromegrass, downy; Postemergence, 31 g ai/ha
  Plant response rating: 0
bromegrass, downy; Postemergence, 62 g ai/ha
  Plant response rating: 0
bromegrass, downy; Postemergence, 125 g ai/ha
  Plant response rating: 0
bromegrass, downy; Preemergence, 62 g ai/ha
  Plant response rating, Bromegrass, Downy: 0
bromegrass, downy; Preemergence, 16 g ai/ha
  Plant response rating, Bromegrass, Downy: 0
bromegrass, downy; Preemergence, 31 g ai/ha
  Plant response rating, Bromegrass, Downy: 0
bromegrass, downy; Preemergence, 125 g ai/ha
  Plant response rating: 0
chamomile; Postemergence, 16 g ai/ha
  Plant response rating: 0
chamomile; Postemergence, 31 g ai/ha
  Plant response rating: 0
chamomile; Postemergence, 62 g ai/ha
  Plant response rating: 0
chamomile; Postemergence, 125 g ai/ha
  Plant response rating: 0
chamomile; Preemergence, 62 g ai/ha
  Plant response rating, Chamomile: 0
chamomile; Preemergence, 16 g ai/ha
  Plant response rating, Chamomile: 0
chamomile; Preemergence, 31 g ai/ha
  Plant response rating, Chamomile: 0
chamomile; Preemergence, 125 g ai/ha
  Plant response rating: 5
wheat, spring; 16 g ai/ha
  Plant response rating: 0
  Plant response rating, Wheat, Spring: 0
wheat, spring; 31 g ai/ha
  Plant response rating: 0
  Plant response rating, Wheat, Spring: 0
wheat, spring; 62 g ai/ha
  Plant response rating: 0
  Plant response rating, Wheat, Spring: 0
wheat, spring; 125 g ai/ha
  Plant response rating: 0
  Plant response rating, Wheat, Spring: 0
wheat, winter; 16 g ai/ha
  Plant response rating: 0
  Plant response rating, Wheat, Winter: 0
wheat, winter; 31 g ai/ha
  Plant response rating: 0
  Plant response rating, Wheat, Winter: 0
wheat, winter; 62 g ai/ha
  Plant response rating: 0
  Plant response rating, Wheat, Winter: 0
wheat, winter; 125 g ai/ha
  Plant response rating: 0
  Plant response rating, Wheat, Winter: 0

## O=C1NCC(c2ccc(Cl)c(F)c2)C1C(=O)Nc1cccc(F)c1F (stereo not drawn) [Compound 52]
galium; Postemergence, 16 g ai/ha
  Plant response rating: 0
galium; Postemergence, 31 g ai/ha
  Plant response rating: 0
galium; Postemergence, 62 g ai/ha
  Plant response rating: 0
galium; Postemergence, 125 g ai/ha
  Plant response rating: 25
galium; Postemergence, 250 g ai/ha
  Plant response rating: 35
galium; Preemergence, 62 g ai/ha
  Plant response rating, Galium: 0
galium; Preemergence, 16 g ai/ha
  Plant response rating, Galium: 0
galium; Preemergence, 31 g ai/ha
  Plant response rating, Galium: 0
galium; Preemergence, 125 g ai/ha
  Plant response rating: 0
galium; Preemergence, 250 g ai/ha
  Plant response rating: 20
bromegrass, downy; Postemergence, 16 g ai/ha
  Plant response rating: 0
bromegrass, downy; Postemergence, 31 g ai/ha
  Plant response rating: 0
bromegrass, downy; Postemergence, 62 g ai/ha
  Plant response rating: 0
bromegrass, downy; Postemergence, 125 g ai/ha
  Plant response rating: 0
bromegrass, downy; Postemergence, 250 g ai/ha
  Plant response rating: 0
bromegrass, downy; Preemergence, 62 g ai/ha
  Plant response rating, Bromegrass, Downy: 0
bromegrass, downy; Preemergence, 16 g ai/ha
  Plant response rating, Bromegrass, Downy: 0
bromegrass, downy; Preemergence, 31 g ai/ha
  Plant response rating, Bromegrass, Downy: 0
bromegrass, downy; Preemergence, 125 g ai/ha
  Plant response rating: 0
bromegrass, downy; Preemergence, 250 g ai/ha
  Plant response rating: 0
chamomile; Postemergence, 16 g ai/ha
  Plant response rating: 0
chamomile; Postemergence, 31 g ai/ha
  Plant response rating: 0
chamomile; Postemergence, 62 g ai/ha
  Plant response rating: 0
chamomile; Postemergence, 125 g ai/ha
  Plant response rating: 20
chamomile; Postemergence, 250 g ai/ha
  Plant response rating: 20
chamomile; Preemergence, 62 g ai/ha
  Plant response rating, Chamomile: 75
chamomile; Preemergence, 16 g ai/ha
  Plant response rating, Chamomile: 20
chamomile; Preemergence, 31 g ai/ha
  Plant response rating, Chamomile: 20
chamomile; Preemergence, 125 g ai/ha
  Plant response rating: 75
chamomile; Preemergence, 250 g ai/ha
  Plant response rating: 80
wheat, spring; 16 g ai/ha
  Plant response rating: 0
  Plant response rating, Wheat, Spring: 0
wheat, spring; 31 g ai/ha
  Plant response rating: 0
  Plant response rating, Wheat, Spring: 0
wheat, spring; 62 g ai/ha
  Plant response rating: 0
  Plant response rating, Wheat, Spring: 0
wheat, spring; 125 g ai/ha
  Plant response rating: 0
  Plant response rating, Wheat, Spring: 0
wheat, spring; 250 g ai/ha
  Plant response rating: 0
  Plant response rating, Wheat, Spring: 0
wheat, winter; 16 g ai/ha
  Plant response rating: 0
  Plant response rating, Wheat, Winter: 0
wheat, winter; 31 g ai/ha
  Plant response rating: 0
  Plant response rating, Wheat, Winter: 0
wheat, winter; 62 g ai/ha
  Plant response rating: 0
  Plant response rating, Wheat, Winter: 0
wheat, winter; 125 g ai/ha
  Plant response rating: 0
  Plant response rating, Wheat, Winter: 0
wheat, winter; 250 g ai/ha
  Plant response rating: 0
  Plant response rating, Wheat, Winter: 10
